Data on 6 compounds can be found in patent publication US20070185431A1, “Galvanic Current Skin Treatment” (priority 2006, published 2007).

“Also recorded” adds a separate entry of the source. A value given as a limit tells only on which side of the number the result lay.

Data set [1] can be described thus: Franz cell skin penetration of the other compounds with and without current (Phoresor). An excerpt:
Thus, for a 1% theobromine solution, a Tris-glycine buffer at pH 12 was chosen. […] By putting theobromine into 0.1N NaOH at pH 12, this compound is ionized to a negative charge. No information was readily available regarding the pKa of Ergothioneine (Thiotaine) but based on its structure, it would appear to have a relatively low pKa and thus be negatively charged at pH 8.0.
For experiments, the electrodes from the Phoresor were applied to the Franz unit with the negative electrode in contact with the skin's surface and in contact with the compound solution being applied. Each compound was tested on 5 skins for skin penetration without current and 5 skins for skin penetration with current.
Note that the time=0 for the bar graphs discussed below represents the time at which the galvanic current was terminated.
A 60 microliter solution of aminophylline in PBS (pH 7.0) gelled slightly with 0.5% HEC was applied to human breast skin mounted in Franz cell chambers. A 0.4 mAmp current was applied for either 6.25 minutes (for a 2.5 mAmp×time dose) or 12.5 minutes to produce a 5 mAmp×time dose. At 6 hours samples were withdrawn for analysis and a second dose applied only to the skin receiving a 2.5 mAmp×time pulse at T=0. Samples were withdrawn for analysis at T=12 hours and again at T=24 hours.
Thus, its rate of dissociation is not going to be high in an aqueous solvent. in order to shift the equilibrium to the anion form of theobromine we prepared a 1% solution in Tris-glycine buffer adjusted to pH 12 with IN NaOH. Franz studies were then carried out using a 2.5 mAmp×time pulse.

For data set [2] the following is noted: cited from earlier work.
Data set [3] in a line: Skin penetration of caffeine in Franz cells with iontophoretic instrument, pre-selected current dose. The class given is in vitro ADME, human. The procedure:
For the first studies, Franz cells were dosed once with either: 1) no current (control), 2) 2 mAmp-minutes, 3) 5 mAmp-minutes, or 4)10 mAmp-minutes. Samples of the Franz receptor fluid were analyzed at 6, 12 and 24 hours after the current dose.
Because a consumer might use this product morning and evening, we separated the dose treatments by 10 hours. The experimental protocol involved applying a saline solution of 1% caffeine (pH 7.2) to human skins mounted in Franz cells. The groups were: 1) control-no dosing, 2) a dose of 2.5 mAmp-minute (0.375 mAmps for 6.67 minutes) repeated at 10 hours, and 3) a single 5 mAmp-minute. All groups contained 5 replicates. For these studies, the caffeine was only applied to the skin during the dosing phase. When a second current application was applied to the 2.5 mAmp-minute group at 10 hours, not only was the caffeine solution added to these skin samples, but it was also placed on the 5 mAmp-minute skins even though these were not treated again with current. This controlled for any skin penetration simply due to the presence of the caffeine solution on the skin. After dosing was completed any remaining caffeine solution was removed from the skin.
Because of the long duration of these studies, dosing was usually initiated at 7:00 am and 6 hours later the first samples were collected for analysis. At T=10 hours (5 pm) a second sample was collected and the 2.5 mAmp-minute group dosed a second time. At T=16 hours (11:00 pm) another sample was collected from the lower reservoir, and at T=24 the final samples were collected.
For this study, the caffeine solution was not removed from skins immediately after dosing but left on the skin for the duration of the experiment.
We conducted dose-response studies to begin to answer this question. For these studies, skins were dosed only once with either 0.6, 1.3, 2.5 or 5 mAmp-minutes with the current held constant at 375 uamps, the maximum output of the Galvanic unit. To each skin 400 microliters of a 1% caffeine in saline solution was applied. In order to minimize evaporation during the study, the caffeine solution was gelled slightly with hydroxyethylcellulose. Six hours after dosing, samples from the lower receptor fluid were collected and analyzed for caffeine.

Data set [4] in a line: Skin penetration of caffeine in modified Franz cells with galvanic current application device. The format is in vitro ADME, human. The text has this: According to one embodiment, another method and apparatus relates to a modified Franz cell instrument and method of testing iontophoresis across a cellular membrane and the effects of an electrical current on the membrane after the electrical current has been removed. […] In this embodiment, a electrical current application device 18 is operably coupled to the Franz cell via a copper wire that connects the two electrodes of the device 18 to the Franz cell. In this embodiment, the negative electrode 16 contacts the surface of the cellular membrane via a copper wafer electrode while the positive electrode 14 is placed in the lower Franz fluid reservoir 12 to complete the circuit. Alternatively, any configuration that allows for application of an electrical current to the cellular membrane placed in the Franz cell is contemplated. According to one embodiment, the apparatus as set forth in FIG. 2 can be used to test the effects of applying electrical current to a cellular membrane.
To perform this examination, three modified Franz cells—each similar to the apparatus depicted in FIG. 2—were placed in series. […] As is understood in the art, 1 milliamp equals 1,000 microamps.
To determine the effectiveness of the current application device in enhancing the penetration of caffeine through human skin, a 1% caffeine solution was prepared in saline solution at a pH of 7.2 and an infinite dose (500 micro liters) applied to the surface of human skin mounted onto Franz cell units. One set of skin samples was left untreated to serve as the control group for passive skin penetration of caffeine. A second set was treated with one 3 minute cycle of the Galvanic unit delivering 120 microamps per skin. The standard convention for expressing the current “dose” the skin receives is Current×Time. Thus, the skin in this group received 360 microamp-minutes of current (120 microamps×3 minutes). A third group of skins were treated with 3 cycles of current (1080 microamp-minutes [shown as 1.1 mA]), and the fourth group received a dose of 4.32 mAmp-minutes (12 cycles at 3 minutes/cycle delivering 120 microamps).
Samples were collected at 6, 12 and 24 hours and the amount of caffeine present in the receptor fluid determined by HPLC.

The conditions of data set [5]: cited from earlier work. The source holds these as a separate data set.

As usually defined, the pKa is the pH at which an ionisable group is half protonated.

As for `CCOC(=O)c1cccnc1` [ethyl nicotinate], the skin penetration enhancement entry in data set [1] is on record as “enhanced skin penetration”. In data set [1] (human, 1 %), the “time after application at which compound is detectable in the lower reservoir fluid” value was at most 2 h and the “time at which enhanced effect of current is detectable” value is “about 4 hour”. Further, the “amount of compound in the receptor fluid” value in data set [1] (human, 24 h, 1 %) was “over 1000 micrograms”.
In the case of `NC(=O)NCCC[C@H](N)C(=O)O` [Citrulline], in data set [2], the pKa is given as 9.4.
In the case of `Cn1c(=O)c2c(ncn2C)n(C)c1=O` [caffeine], the “skin penetration: two 2.5 mAmp-minute doses versus one dose” value in data set [3] is reported as “significantly more skin penetration of caffeine than one dose”. Besides, the “increase in the penetration of caffeine” value in data set [3] (2 mAmp-minute dose, 6 hours after treatment) came out at 1.5 fold. In addition, in data set [3] (2.5 and 5 mAmp-minute groups, caffeine removed after dosing), the “time post-dosing at which penetration enhancement was detectable” value is at most 6 h. The “increase in the amount of caffeine penetrating the skin” value in data set [3] (5 mAmp-minute dose, 6 hours) turned out to be 3 fold; in data set [3] (10 mAmp-minute dose, 6 hours), 4 fold. Further, in data set [3] (5 mAmp-minute dose, 24 hours), the “amount of caffeine present in the receptor as fraction of applied dose” value is given as 4 % of applied dose. Also, the “time after dosing at which enhanced penetration can be detected” value in data set [3] (5 mAmp-minute dose, caffeine solution left on skin) is at most 3 h. For the same compound, the “amount of caffeine penetrated: 2.5 mAmp-minute dosed twice versus 5 mAmp-minute dosed once” value in data set [3] (24 hours) is given as “no significant difference; also recorded: as much caffeine penetration as a single 5 mAmp-minute dose”. For the same compound, the “effect of a second 5 mAmp-minute dose versus a single 5 mAmp-minute dose” value in data set [3] (24 hours, caffeine left on skin) is reported as “no additional accumulation of caffeine; also recorded: does not appear to significantly enhance caffeine skin penetration”. In addition, the “caffeine in the receptor without current” value in data set [3] (control skins, no current, 3 hours) is recorded as “no presence of caffeine in the receptor”. In data set [3] (single 2.5 mAmp-minute dose), the “time after dosing at which skin penetration enhancement can be detected” value is at most 3 h. In addition, the skin penetration enhancement result in data set [3] (single dose of 0.6 mAmp-minutes at 375 uamps, 6 hours, gelled 1% caffeine) is “will enhance skin penetration”. In data set [3] (single dose, 6 hours), the “current level above which maximal skin penetration occurs (sigmoidal fit)” value was 3-5 mAmp-minutes. Further, the “penetration enhancement of single 2.5 mAmp-minute dose relative to single 5 mAmp-minute dose” value in data set [3] (single doses) is on record as “about 50%”. The “penetration enhancement of caffeine through the skin” value in data set [4] (1 cycle (360 microamp-minutes)) is on record as “ineffective in causing any detectable penetration enhancement”. Also, in data set [4] (3 cycles (1080 microamp-minutes), 24 hours), the “penetration enhancement of caffeine compared to control” value is recorded as “some marginal enhancement of penetration; also recorded: some small enhancement in skin penetration”. In addition, in data set [4] (6 cycles (2.2 mAmp-minutes), 24 hours), the “penetration enhancement of caffeine through human skin” value is “did enhance delivery of caffeine”. Besides, the “amount of caffeine that had penetrated skin relative to control group” value in data set [4] (12 cycles (4.32 mAmp-minutes), 24 hours, 1% caffeine in saline pH 7.2) stood at 6 times. Also, the “time at which increase in skin penetration was detectable” value in data set [4] (12 cycles (4.32 mAmps-min)) is at most 6 h.
Consider `Cn1cnc2c1c(=O)[nH]c(=O)n2C` [theobromine], for which the pKa in data set [2] was 9.9. The solubility result in data set [5] is given as “virtually insoluble in any solvent except dilute alkali; also recorded: essentially insoluble in any solvent other than alkali”. In addition, in data set [1] (pH 12), the “skin penetration from the solvent used” value is listed as “relatively poorly”.
On to `C[N+](C)(C)[C@@H](Cc1c[nH]c(=S)[nH]1)C(=O)[O-]` [Thiotaine, Ergothioneine], for which the “skin penetration to lower chamber reservoir without current” value in data set [1] (no current, 24 hours) is “no compound had penetrated the skin”. Moreover, the “relative skin permeability among the compounds studied” value in data set [1] (simple buffer systems) is recorded as “least permeable”. Moreover, the “levels in the lower reservoir with current” value in data set [1] (single dose of 2.5 mAmp×time, 12 and 24 hours) was “measurable Thiotaine levels in the lower reservoir”.
For `Cn1c(=O)c2[nH]cnc2n(C)c1=O` [aminophylline], the pKa in data set [2] is reported as 5.0. Also, in data set [1], the “increase in skin flux” value was “only a modest increase in skin flux”; the “skin penetration enhancement, FIG. 9A” value is recorded as “produced enhanced skin penetration”; the “skin penetration without current” value is “relatively high skin penetration”. Besides, in data set [1] (human, 1 %), the “enhancement in skin penetration over control values, extrapolated” value was 23% and the “enhancement in skin penetration, extrapolated” value is 9%. Also, the “increase in skin penetration” value in data set [1] (human, 24 h, 1 %) was “approximately 1.7 fold”. In addition, the “skin penetration: two treatments of 2.5 mAmp×time versus single 5 mAmp×time pulse” value in data set [1] (human, 24 h, 1 %, pH 7) was “did not equal the skin penetration seen with a single 5 amp×time pulse”.
